How the values were obtained:
[1] = system: T47D (human breast cancer cell); assay: MTT assay, in vitro cytotoxicity on T47D
Excerpt: (§1) Cells were purchased from the Cell Bank of the Chinese Academy of Sciences (Kunming, China).

PC-3 cells = assay: Annexin V-FITC/PI apoptosis, flow cytometry; type: cell-based, human; details: 10 μM
Excerpt: Apoptosis is an important target for antitumor therapy. To explore the antitumor mechanism of compound 8q, cell apoptosis was detected using flow cytometry. […] Moreover, reactive oxygen species (ROS) play a significant role in cell growth, differentiation and apoptosis. Excessive ROS can cause oxidative damage and lead to cell apoptosis. […]
2.3.The effect of compound 8q on cell apoptosis
We used Annexin V-FITC/ PI double staining to evaluate cellular apoptosis via flow cytometry to figure out if apoptosis participates in the inhibition of cell growth.
PC-3 cells were seeded in a six-well plate at a density of 3 × 105, and cultured at 37 ℃ and 5% CO2 for 24 h before adding 10 μM. 20 μM and 30 μM compound 8q and 30 μM Harmine to each well. After 48 h, the cells were collected and stained and incubated flowing the manufacturer ’s protocol of the Annexin V-FITC/PI Apoptosis Detection Kit (Solarbio, Beijing, China). After completion, the cells were immediately detected on the Flow Cytometry (Solarbio, Beijing, China). The experimental results were processed using Flow Jo and Prism 7.04 software. […]

[2] = system: Hek-293T (human embryonic kidney cells); assay: MTT assay, in vitro cytotoxicity on normal Hek-293T; details: read-out: Inhibitory Activity/% at 10 μM, Hek-293T
Excerpt: as §1

COc1cc(-c2nc(-c3nnc(SCC(=O)Nc4ccc(CN5CCOCC5)cc4)o3)cc3c2[nH]c2ccccc23)cc(OC)c1OC [Compound 8q, N-(4-(morpholinomethyl)phenyl)-2-((5-(1-(3,4,5-trimethoxyphenyl)-9H-pyrido[3,4-b]indol-3-yl)-1,3,4-oxadiazol-2-yl)thio)acetamide]
IC50 ([1]; read-out: IC50 (Mean ± S.D.), T47D): 9.96 ± 0.63 µM | inhibition at 10 µM ([1]; read-out: Inhibitory Activity/% at 10 μM, T47D): 14.5 ± 7.43% | Total apoptosis rate in PC-3 cells (PC-3 cells; 48 h): 63.23% | Annexin V-FITC/PI flow cytometry quadrant Q1 (PC-3 cells; Figure 4A): 0.35 | Annexin V-FITC/PI flow cytometry quadrant Q2 (PC-3 cells; Figure 4A): 22.7 | Annexin V-FITC/PI flow cytometry quadrant Q3 (PC-3 cells; Figure 4A): 32.9 | Annexin V-FITC/PI flow cytometry quadrant Q4 (PC-3 cells; Figure 4A): 44.1 | inhibition at 10 µM [2]: 54.8 ± 0.99%

From paper PMC11547513, “Design, Synthesis and Biological Activity Evaluation of β-Carboline Derivatives Containing Nitrogen Heterocycles” (Molecules, 2024)
